Results from US4072689A, “Monoamino 2,4,5-trisubstituted oxazoles” (Gruppo Lepetit S.p.A., priority 1975, dated 1978).

Columns and labels:
[1] = acute toxicity, LD50 p.o. mice; settings: mouse, in vivo, po
[2] = test system: carrageenin induced edema; experiment: carrageenin-induced edema test, oral administration; assay type: in vivo, rats; settings: mice
Experimental: The compounds of the invention have antiinflammatory activity. […] The compounds are orally administered at dosages varying from 10 to 200 mg/kg. and the observed percent decreases of the induced edema are between about 30 and about 65. The acute toxicity of these compounds is ordinarily very low, almost always being higher than 1000 mg/kg. Moreover the compounds of this invention are much less ulcerogenic than other known and wisely used anti-inflammatories, such as, for example, phenylbutazone.

Row | SMILES | LD50 [1] | Percent inhibition of carrageenin induced edema ([2]; dose 50 mg/kg p.o.) | Percent inhibition of carrageenin induced edema ([2]; dose 100 mg/kg p.o.) | Percent inhibition of carrageenin induced edema ([2]; dose 200 mg/kg p.o.)
1 | Cc1nc(-c2ccccc2)oc1C(N)=O [Example 1, 5-Carbamoyl-4-methyl-2-phenyloxazole] | > 1000 mg/kg | 30% | 43% | 64%
2 | Cc1oc(-c2ccccc2)nc1C(N)=O [Example 2, 4-Carbamoyl-5-methyl-2-phenyloxazole] | > 1000 mg/kg | 29% | 42% | 53%
